Several values for one entry are separate records, joined by “and”; a condition that tells them apart may be missing. Equal entries are not always repeated. Where two headings read alike, the source gives them in different places.

A short description of data set [1]: Dissociation constant (Kd) by UV absorbance titration at 280 nm, glucose. The class given is binding. The conditions noted are these: 1 mM DBA2+Br, 50 mM phosphate buffer pH 7.4. The method, then:
100 μL of glucose aqueous solutions with two-fold serial dilutions from 1024 mM to 0.5 mM were added into a 96 well microplate. Then 100 μL of 2 mM DBA2+Br in 100 mM phosphate buffer (pH=7.4) was added. After shaking for 10 s and waiting for 30 min, the absorbance of each well at 280 nm was recorded on a microplate reader.
(§1) The affinity and selectivity of DBA+ to glucose were then tested by comparing affinity with other five mono- or di-saccharides, particularly fructose, galactose, maltose, sucrose, and lactose. The UV absorption changes at 280 nm of DBA+ with the increase of sugar concentration was used for the affinity calculation. The absorbance values of 1 mM DBA+Br at 280 nm as function of sugar concentrations from 0 to 512 mM were measured in 50 mM Phosphate PBS (pH=7.4).
The titration data was plotted. The disassociation equation for complex DBAG is as follows: […]
where DBAG refers to all three possible complexes, DBA2+G, DBA1+G and DBA-G, and DBA2 refers to all the unbound molecules, DBA2+, DBA1+ and DBA0.
(§2) where sqrt refers to the square root 11 Equation (11) is used for non-linear fitting in Origin to obtain the Kd values.
(§3) The disassociation constant (Kd) of DBA2+ was calculated through non-linear curve fitting according to previous work (Stootman, et al., Analyst, 131:1145-1151 (2006)).

Data set [2] is described as follows: Dissociation constant (Kd) by UV absorbance titration at 280 nm, galactose. The class given is binding. To be noted: 1 mM DBA2+Br, 50 mM phosphate buffer pH 7.4. The method, then: as §1, §2, §3
A short description of data set [3]: Dissociation constant (Kd) by UV absorbance titration at 280 nm, lactose. The class given is binding. To be noted: 1 mM DBA2+Br, 50 mM phosphate buffer pH 7.4. The method, then: as §1, §2, §3
Data set [4] can be described thus: pKa measurement by absorbance at 280 nm as a function of pH. The class given is physicochemical. To be noted: for pKa: aqueous buffer solutions in 96-well microplate, 1 mM DBA2+Br, absorbance at 280 nm vs pH. The method, then: 100 mM buffer solutions for titration from pH 4 to pH 11.5 were prepared with different buffer systems to ensure the accuracy of pH for the following tests. NaAc/HAc was prepared for pH 4.05, 4.53, 5.03 and 5.53; Na2HPO4/NaH2PO4 was prepared for pH 6.00, 6.51, 6.99 and 7.51; NaB(OH)4/B(OH)3 was prepared for pH 8.05, 8.56 9.03 and 9.53; Na2CO3/NaHCO3 was prepared for pH 10.01, 10.54, 11.01 and 11.49.
50 μL of buffer solutions at different pH was added into 96 microplate wells. Then 50 μL of 2 mM DBA2+Br or a mixture of 2 mM DBA2+Br and 400 mM glucose in water was added to each well.
After shaking for 10 s and waiting for 10 min, the absorbance of each well at 280 nm was recorded on a microplate reader.
Due to the interaction between borate and glucose, the pH of the borate buffer solution is changed and thus the data for DBA2+Br/Glucose from pH 8 to 9.5 were abandoned. The rest of the data was plotted in Origin. The equilibrium equation for DBA2+ is as follows: […]
Then equation (4) is used for non-linear fitting in Origin, and pKa is defined as the pH at which half of the boronic acid is in the anionic state:
The same non-linear curve fitting also was used for the determination of pKa of DBAG2+G which has equilibrium equation as follow: […]
The pKa of DBA2+ before and after glucose binding was determined based on the differences in absorption spectra upon formation of tetrahedral borate anion in high pH media (Springsteen, et al., Tetrahedron, 58:5291-5300 (2002)).
pKa values were determined by curve fitting the changes in absorbance as a function of pH (FIG. 1).

Data set [5] in a line: Dissociation constant (Kd) by UV absorbance titration at 280 nm, maltose. It counts as binding. The conditions noted are these: 1 mM DBA2+Br, 50 mM phosphate buffer pH 7.4. The method, then:
as §1, §2, §3

Data set [6] can be described thus: Dissociation constant (Kd) by UV absorbance titration at 280 nm, fructose. To be noted: 1 mM DBA2+Br, 50 mM phosphate buffer pH 7.4. It counts as binding. How it is done: as §1, §2, §3
A short description of data set [7]: Dissociation constant (Kd) by UV absorbance titration at 280 nm, sucrose. The class given is binding. The conditions noted are these: 1 mM DBA2+Br, 50 mM phosphate buffer pH 7.4. How it is done:
as §1, §2, §3

Data set [8] can be described thus: Effect of interference sugars on DBA2+ based conductimetric sensor (solution resistance). The conditions noted are these: interference sugar 1 mM (maltose 10 mM), relative to resistance with glucose alone. How it is done:
To a reservoir in a device set up as depicted shown in FIG. 3, 1 mL of the initial testing solution (2 mM DBA2+P and 2.5 mM Na3PO4, pH=7.6) was added. Direct current voltage is 0 mV due to the same material for two electrodes. Alternating current voltage was set at 20 mV, and the impedance was scanned vs. frequency from 10 Hz to 10 MHz (FIGS. 4A-4C). At 0.1 MHz, the capacitive reactance is very small compared to the resistance (R) of the solution, and thus this frequency was used for the following tests.
To the testing solution, trace quantities (2-5 μL) of a concentrated (0.5 or 2 M) glucose aqueous solution were continuously added. Glucose solutions were added every 30 minutes with concentrations spanning the diabetes-relevant range, (i.e. [glucose]=0-30 mM). The resistance of solution vs. time was collected for 30 min after each addition. After adding glucose to 30 mM, the testing solution was diluted to 12 mM by adding 1.5 mL of fresh testing solution. 1.5 mL was then discharged after mixing and the resistance of the remaining 1 mL solution was monitored.
Interference effects from other sugars, i.e. fructose, galactose, maltose, and lactose, were examined. Tests were performed at two different glucose concentrations typically experienced in diabetes, 5 mM (i.e. a physiological concentration of glucose) and 20 mM (i.e. a pathophysiological concentration of glucose) in 1 mL of testing solution. In these tests, interferent concentrations were higher or equal to 2.5 times the maximum plasma concentration (MPC). To the testing solution containing glucose, 2 μL or 5 μL of one of the interference solutions (containing fructose, galactose, maltose, or lactose) were added and the solution resistance (R) was monitored. The interference by 1 mM fructose or galactose was tested due to the considerable high affinity compared to the other […].

The conditions of data set [9]: maximum physiological or therapeutic plasma concentration, cited from earlier work.
Setting [10] is: presence of 200 mM glucose (DBA-G), read-out: pKa in the presence of glucose.
[11] abbreviates: testing solution with 5 mM glucose.
Setting [12] is: testing solution with 20 mM glucose.

For `C[N+](C)(Cc1ccc(C[N+](C)(C)Cc2ccccc2B(O)O)cc1)Cc1ccccc1B(O)O` [DBA2+], the dissociation constant (Kd) in [1] is 0.9 ± 0.1 mM; in [2], 16 mM; in data set [2] (listed as Formula III), ~16 mM; in data set [6] it was 1.7 mM; in [6] (listed as Formula III) it was ~1.7 mM. Also, the “Kd value for lactose” value in data set [3] is listed as “could not be determined due to their low affinity”. Further, the pKa1 in data set [4] (absence of glucose) was 9.0; in data set [4] (presence of 200 mM glucose), 5.9. The pKa2 amounted to 9.7 in data set [4] (absence of glucose) and 6.9 in data set [4] (presence of 200 mM glucose). In addition, the pKa in data set [4] (absence of glucose, read-out: pKa) worked out at 9.4; in data set [4] (setting [10]), 6.3. Besides, the “change in pKa for DBA2+ and DBA-G” value in data set [4] (upon glucose binding, centers around pH 7.4) is ~3 unit. In addition, the “Kd value for maltose” value in data set [5] is “could not be determined due to their low affinity”. Besides, the “Kd value for sucrose” value in [7] is reported as “could not be determined due to their low affinity”.
For `C[N+]1(C)Cc2ccc(cc2)C[N+](C)(C)Cc2ccccc2[B-]2(O)OC3OC4CO[B-](O)(OC4C(O)C3O2)c2ccccc2C1` (centres unmarked) [DBA-G], the pKa in data set [4] (setting [10]) turned out to be 6.3.
Consider `O=C(CO)[C@@H](O)[C@H](O)[C@H](O)CO` [Fructose, fructose], for which the Resistance increase is 3% and 2.9% in [8] (setting [11]); −0.3% in data set [8] (setting [12]). The “Max plasma [sugar]” value in [9] is reported as 0.133 mM; in data set [9] (listed as fructose), 0.13 mM.
For `O=C[C@H](O)[C@@H](O)[C@@H](O)[C@H](O)CO` [Galactose, galactose], the values for the Resistance increase in data set [8] (setting [11]) and in data set [8] (setting [12]) were 1.4% and 0.6%, respectively. In addition, the “Max plasma [sugar]” value in data set [9] is reported as 0.28 mM.
In the case of `OC[C@H]1O[C@@H](O[C@H]2[C@H](O)[C@@H](O)C(O)O[C@@H]2CO)[C@H](O)[C@@H](O)[C@H]1O` (some centres unmarked) [Lactose, lactose], the Resistance increase in data set [8] (setting [11]) was 0.2%; in [8] (setting [12]) it was 1.6%. Also, the “Max plasma [sugar]” value in data set [9] is reported as 0.015 mM.
Regarding `OC[C@H]1O[C@H](O[C@H]2[C@H](O)[C@@H](O)[C@H](O)O[C@@H]2CO)[C@H](O)[C@@H](O)[C@@H]1O` [Maltose, maltose], the Resistance increase in [8] (setting [11]) stood at 0.4%; in [8] (setting [12]) it was 1.6%. The “Max plasma [sugar]” value in [9] is given as 3.5 mM.

By Kd is commonly meant the equilibrium constant for the complex coming apart. The pKa is the negative logarithm of the acid dissociation constant.

(Values after patent US20220204531A1, “DIBORONIC ACID COMPOUNDS AND METHODS OF MAKING AND USING THEREOF” (The Regents of The University of California, priority 2020, published 2022).)
